Results on two compounds are retold here after patent EP4534539A1, “DIDEUTERATED CAMPTOTHECIN DERIVATIVE AND PREPARATION METHOD THEREFOR” (priority 2022, dated 2023).

One series relates to HCT116 cells. Put plainly: HCT-116 cell inhibitory activity test (MTT). The following applies: Homo sapiens, read-out: IC50 Activity. It is filed as cell-based. The method, then: HCT116 cells (purchased from ATCC) were cultured in a 5% CO2 incubator at 37 °C using DMEM culture medium (purchased from Gibco) supplemented with 10% fetal bovine serum and 1% penicillin-streptomycin solution. The cells were seeded in 96-well plates at 3000 cells per well and cultured overnight. Different concentrations of drugs were respectively added, and the cells were placed in a normal incubator (21 % O2, 5% CO2, and 74% N2) and cultured for 72 h. 100 µL of culture medium was removed. 10 µL of MTT solution (5 mg/mL) was added. Then the cells were cultured in the incubator for 4 hours. 50 µL of triple combination solution (10% SDS, 5% isobutanol, and 0.012 mol/L HCl) was added. The cells were placed in the incubator overnight. OD values were measured at 540 nm wavelength, and median inhibition concentration IC50 of the drug on tumor cell growth was calculated (n=3). Compounds with activity designated as "A" provide IC50≤10nM. Compounds with activity designated as "B" provide IC50 of 10 nM to 100 nM. Compounds with activity designated as "C" provide IC50 of 100 nM to 1000 nM. Compounds with activity designated as "D" provide IC50 of 1000 nM to 10000 nM. Titer (nM); Efficacy (IC50).

In a further series the test system is MDA-MB-468 cells. The series is described as follows: Inhibitory activity on MDA-MB-468 cells (MTT). The class given is cell-based. The following applies: for IC50: Homo sapiens, read-out: MDA-MB-468 IC50. The procedure:
(§1) MDA-MB-468 cells (purchased from ATCC) were cultured in L-15 culture medium (purchased from Sigma-Aldrich), NCI-N87 cells (purchased from ATCC) were cultured in RPMI-1640 culture medium (purchased from Gibco), and HT29 cells (purchased from ATCC) were cultured in McCoy's 5A culture medium (purchased from Gibco), each of which was supplemented with 10% fetal bovine serum and 1% penicillin-streptomycin solution, and placed in a 5% CO2 incubator at 37°C. The cells were seeded in 96-well plates at 3000 cells per well and cultured overnight. Different concentrations of drugs were respectively added, and the cells were placed in a normal incubator (21% O2, 5% CO2, and 74% N2) and cultured for 72 h. 100 µL of culture medium was removed. 10 µL of MTT solution (5 mg/mL) was added. Then the cells were cultured in the incubator for 4 hours. 50 µL of triple combination solution (10% SDS, 5% isobutanol, and 0.012 mol/L HCl) was added. The cells were placed in the incubator overnight. OD values were measured at 540 nm wavelength, and median inhibition concentration IC50 of the drug on tumor cell growth was calculated (n=3).

A further series concerns NCI-N87 cells. The series is described as follows: Inhibitory activity on NCI-N87 cells (MTT). The class given is cell-based, human. The following applies: for IC50: Homo sapiens, read-out: NCI-N87 IC50. The method, then: as §1
Another series concerns HT29 cells. Put plainly: Inhibitory activity on HT29 cells (MTT). It is filed as cell-based, human. Particulars: for IC50: Homo sapiens, read-out: HT29 IC50. The procedure: as §1
Series [1] can be described thus: Pharmacokinetic test - rats. The following applies: in vivo, 3 mg/kg, Rat PK, IV, 3 mpk, single injection, plasma; for Vd: read-out: Vz. Details: species or system SD rats. The method, then:
Experimental objective: To evaluate the pharmacokinetic characteristics of the compound of the present application in rats.
SD rats (Beijing Vital River Laboratory Animal Technology Co., Ltd.) were randomly divided, 6 rats/group, half male and half female, and were injected once with a sample (10% DMSO-90% (20% 2-hydroxypropyl-β-cyclodextrin-physiological saline), diluted according to the dose). Plasma samples were respectively taken before administration, and at 5 min, 30 min, 1 h, 2 h, 4 h, 6 h, 8 h, 10 h, and 24 h after administration. The sample concentration in plasma was determined by LC-MS method, and pharmacokinetic parameters were calculated (see Table 4). Table 4 Pharmacokinetic characteristics of the compound of the present application in SD rats

Series [2] is classed as in vivo. Particulars: SD rats, intravenous administration once a day for 7 consecutive days; result in words. The text has this: The possible toxic reactions and severity thereof of the drug on SD rats were observed after continuous intravenous administration for 7 days. The toxicity of the compound in rodents was preliminarily evaluated. SD rats (Beijing Vital River Laboratory Animal Technology Co., Ltd.) were randomly divided, 6 rats/group, half male and half female, and injected with samples (preparation: 10% DMSO-90% (20% 2-hydroxypropyl-β-cyclodextrin-physiological saline), diluted according to the dose) once a day for 7 consecutive days. Weight and food intake were monitored every two days, and the status of the animals was observed. Blood samples were taken 24 h after the last dose for hematology, blood biochemistry and coagulation indexes.

Series [3] in a line: Pharmacokinetic test - mice. It is filed as in vivo, Balb/c mice. Particulars: mouse, 3 mg/kg, Mice PK, IV, 3 mpk, single injection, plasma. The method, then:
Experimental objective: To evaluate the pharmacokinetic characteristics of the compound of the present application in mice.
Balb/c mice (purchased from Beijing Vital River) were randomly divided, 12 mice/group, half male and half female, and were injected once with a sample (10% DMSO-90% (20% 2-hydroxypropyl-β-cyclodextrin-physiological saline), diluted according to the dose). Cross samples of plasma were respectively taken before administration, and at 5 min, 30 min, 1 h, 2 h, 4 h, 6 h, 8 h, 10 h, and 24 h after administration. The sample concentration in plasma was determined by LC-MS method, and pharmacokinetic parameters were calculated (see Table 3). Table 3 Pharmacokinetic characteristics of the compound of the present application in mice

Where two headings read alike, the source gives them in different places.

Regarding `[2H]C1([2H])OC(=O)[C@](O)(CC)c2cc3n(c(=O)c21)Cc1c-3nc2ccc(O)cc2c1CC` [Compound A-9], the half-maximal inhibitory concentration (IC50) with HCT116 cells (HCT-116, 72 h) is under 10 nM. In the series with MDA-MB-468 cells (MDA-MB-468, 72 h), the concentration for half-maximal inhibition (IC50) was under 10 nM. In addition, the “MDA-MB-468 Inh.max” value in the series with MDA-MB-468 cells (MDA-MB-468 cells, 72 h, MTT) is on record as over 80%. In addition, in the series on NCI-N87 cells (NCI-N87, 72 h), the concentration for half-maximal inhibition (IC50) is under 10 nM. Moreover, the “NCI-N87 Inh.max” value with NCI-N87 cells (NCI-N87 cells, 72 h, MTT) is over 80%. For the same compound, the “HT29 Inh.max” value with HT29 cells (HT29 cells, 72 h, MTT) is on record as over 90%. Besides, the IC50 with HT29 cells (HT-29, 72 h) was under 10 nM. In addition, in series [1], the area under the curve AUC(0-inf) stood at 99.5 ng·h/mL, the Cmax came out at 288 ng/mL, the clearance is 167 mL/min/kg and the half-life was 1.35 h. Moreover, the Vd in series [1] came out at 19.5 L/kg. In addition, the safety entry in series [2] is listed as “better safety”.

In the case of `[2H]C1([2H])OC(=O)[C@](O)(CC)c2cc3n(c(=O)c21)Cc1c-3nc2cc(F)c(C)c3c2c1[C@@H](N)CC3` [Compound A-11], the IC50 in the series on HCT116 cells (HCT-116, HCT116 cells, 72 h, MTT, n=3) is under 10 nM; in the series on MDA-MB-468 cells (MDA-MB-468 cells, 72 h, MTT, n=3) it was under 10 nM; with NCI-N87 cells (NCI-N87 cells, 72 h, MTT, n=3), under 10 nM; with HT29 cells (HT-29, HT29 cells, 72 h, MTT, n=3), under 10 nM. The “MDA-MB-468 Inh.max” value in the series with MDA-MB-468 cells (MDA-MB-468 cells, 72 h, MTT) is recorded as over 80%. In the series with NCI-N87 cells (NCI-N87 cells, 72 h, MTT), the “NCI-N87 Inh.max” value was over 70%. Moreover, the “HT29 Inh.max” value in the series with HT29 cells (HT29 cells, 72 h, MTT) is given as over 90%. Moreover, the figures for the total exposure AUC(0-inf) in series [3] and in series [1] were 321 ng·h/mL and 135 ng·h/mL, respectively. Also, the Cmax in series [3] came out at 902 ng/mL; in series [1] it was 215 ng/mL. Also, the clearance is 156 mL/min/kg in series [3] and 381 mL/min/kg in series [1]. In addition, the half-life in series [3] is 1.19 h; in series [1] it was 0.91 h. The Vd in series [3] (read-out: Vz) came to 16 L/kg; in series [1], 30.1 L/kg. The safety result in series [2] was “better safety”.

For orientation: IC50 means the point on the concentration scale where inhibition reaches its midpoint. As a reminder, the AUC(0-inf) is total exposure, with the tail of the curve extrapolated. In general, Cmax refers to the peak of the concentration-time curve. Broadly, the clearance is the rate of elimination divided by the concentration. A lower clearance goes with inefficient removal. A word on the half-life: it is the time needed for the level to fall by half in the phase considered. Read a high half-life as slow loss.
